Measurements: ChEMBL document CHEMBL2016462, “Inhibitors of Ketohexokinase: Discovery of Pyrimidinopyrimidines with Specific Substitution that Complements the ATP-Binding Site” (ACS Med Chem Lett, 2011)
Converted amounts (≈) assume the structure as drawn.

Tests used:
[1] = molecular target: T1, Ketohexokinase (Homo sapiens, UniProt P50053); assay: Inhibition of human ketohexokinase isoform C expressed in Escherichia coli BL21 (DE3) cells using D-fructose as substrate after 12 to 15 mins by fluorescence polarization assay
T1 sequence (P50053 whole entry): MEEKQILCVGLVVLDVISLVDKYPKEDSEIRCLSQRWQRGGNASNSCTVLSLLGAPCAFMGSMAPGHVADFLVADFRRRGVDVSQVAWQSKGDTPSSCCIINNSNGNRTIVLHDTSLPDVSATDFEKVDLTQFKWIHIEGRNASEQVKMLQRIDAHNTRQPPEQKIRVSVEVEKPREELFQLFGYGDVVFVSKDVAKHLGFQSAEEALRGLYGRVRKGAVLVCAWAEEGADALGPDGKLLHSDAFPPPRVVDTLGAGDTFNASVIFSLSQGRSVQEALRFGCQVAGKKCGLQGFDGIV

[2] = molecular target: Ephrin type-B receptor 1 (Homo sapiens, UniProt P54762); assay: Inhibition of EPHB1
[3] = Clearance in Sprague-Dawley rat at 2 mg/kg, iv; type: ADME, organism-based; set-up: dose 2 mg/kg, route intravenous; details: in vivo
[4] = molecular target: Rho-associated protein kinase 1 (Homo sapiens, UniProt Q13464); assay: Inhibition of ROCK1
Rho-associated protein kinase 1, sequence (Q13464 whole entry): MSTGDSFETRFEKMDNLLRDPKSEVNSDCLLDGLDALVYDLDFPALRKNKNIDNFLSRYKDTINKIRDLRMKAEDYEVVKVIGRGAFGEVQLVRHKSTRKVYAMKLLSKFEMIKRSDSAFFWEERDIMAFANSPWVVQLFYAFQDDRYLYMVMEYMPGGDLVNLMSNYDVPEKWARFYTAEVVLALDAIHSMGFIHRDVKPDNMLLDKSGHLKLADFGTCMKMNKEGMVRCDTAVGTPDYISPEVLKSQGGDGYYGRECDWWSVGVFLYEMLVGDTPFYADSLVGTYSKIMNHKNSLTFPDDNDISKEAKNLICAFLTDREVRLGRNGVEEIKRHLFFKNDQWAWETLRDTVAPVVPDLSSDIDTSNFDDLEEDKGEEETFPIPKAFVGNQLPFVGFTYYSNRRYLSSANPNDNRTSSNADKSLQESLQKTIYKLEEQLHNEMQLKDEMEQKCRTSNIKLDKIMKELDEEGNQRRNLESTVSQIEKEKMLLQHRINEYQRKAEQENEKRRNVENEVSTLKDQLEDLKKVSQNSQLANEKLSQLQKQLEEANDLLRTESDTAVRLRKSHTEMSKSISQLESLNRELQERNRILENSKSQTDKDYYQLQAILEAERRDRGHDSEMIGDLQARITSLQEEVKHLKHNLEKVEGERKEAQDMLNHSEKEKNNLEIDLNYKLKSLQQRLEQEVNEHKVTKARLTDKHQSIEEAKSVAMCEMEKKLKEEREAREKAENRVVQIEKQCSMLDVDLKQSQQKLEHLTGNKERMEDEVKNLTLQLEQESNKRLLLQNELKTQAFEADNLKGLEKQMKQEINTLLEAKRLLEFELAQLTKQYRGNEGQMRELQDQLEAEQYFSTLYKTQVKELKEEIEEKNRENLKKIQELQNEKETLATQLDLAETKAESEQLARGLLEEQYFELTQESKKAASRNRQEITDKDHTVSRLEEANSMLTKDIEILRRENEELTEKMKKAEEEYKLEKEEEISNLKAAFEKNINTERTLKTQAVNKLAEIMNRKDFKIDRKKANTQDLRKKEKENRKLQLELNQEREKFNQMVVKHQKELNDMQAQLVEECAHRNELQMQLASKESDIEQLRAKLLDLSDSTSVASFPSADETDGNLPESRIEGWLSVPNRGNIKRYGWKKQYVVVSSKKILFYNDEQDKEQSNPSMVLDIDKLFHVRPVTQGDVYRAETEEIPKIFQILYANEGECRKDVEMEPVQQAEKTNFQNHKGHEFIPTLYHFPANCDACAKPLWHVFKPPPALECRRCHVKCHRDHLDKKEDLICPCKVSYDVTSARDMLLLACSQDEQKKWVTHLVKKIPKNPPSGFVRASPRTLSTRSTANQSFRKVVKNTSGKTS

[5] = molecular target: Calcium/calmodulin-dependent protein kinase type II subunit alpha (Homo sapiens, UniProt Q9UQM7); assay: Inhibition of CAMK2A
[6] = molecular target: Calcium/calmodulin-dependent protein kinase type 1D (Homo sapiens, UniProt Q8IU85); assay: Inhibition of CAMK1D
[7] = Volume of distribution at steady state in Sprague-Dawley rat at 2 mg/kg, iv; type: ADME, organism-based; set-up: dose 2 mg/kg, route intravenous; details: in vivo, read-out: Vdss
[8] = molecular target: Cyclin-dependent kinase 1/cyclin B1 (Homo sapiens, UniProt P06493); assay: Inhibition of CDK1/cyclin B; type: protein-complex assay
Cyclin-dependent kinase 1/cyclin B1, sequence (P06493 whole entry): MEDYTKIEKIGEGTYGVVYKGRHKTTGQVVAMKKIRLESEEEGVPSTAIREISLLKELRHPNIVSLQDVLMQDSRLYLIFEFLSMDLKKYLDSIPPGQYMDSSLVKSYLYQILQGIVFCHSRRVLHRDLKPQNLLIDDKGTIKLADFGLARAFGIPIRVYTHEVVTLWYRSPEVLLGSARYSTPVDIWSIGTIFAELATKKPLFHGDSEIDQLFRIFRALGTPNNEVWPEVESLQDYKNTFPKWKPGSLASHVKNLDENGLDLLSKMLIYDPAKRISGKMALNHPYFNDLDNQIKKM
Cyclin-dependent kinase 1/cyclin B1, sequence (P14635 whole entry, further chain): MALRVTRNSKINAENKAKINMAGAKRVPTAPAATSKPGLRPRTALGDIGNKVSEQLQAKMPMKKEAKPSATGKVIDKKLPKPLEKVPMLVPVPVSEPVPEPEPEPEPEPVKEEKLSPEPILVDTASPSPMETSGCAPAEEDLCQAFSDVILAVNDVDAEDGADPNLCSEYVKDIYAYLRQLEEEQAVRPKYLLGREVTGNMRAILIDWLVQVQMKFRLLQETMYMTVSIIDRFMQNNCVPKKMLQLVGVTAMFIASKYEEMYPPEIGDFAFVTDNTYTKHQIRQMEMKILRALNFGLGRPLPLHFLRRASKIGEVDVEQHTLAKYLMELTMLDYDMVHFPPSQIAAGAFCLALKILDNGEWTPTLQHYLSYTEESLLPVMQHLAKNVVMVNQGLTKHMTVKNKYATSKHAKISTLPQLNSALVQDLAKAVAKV

[9] = molecular target: RAC-alpha serine/threonine-protein kinase (Homo sapiens, UniProt P31749); assay: Inhibition of AKT1
[10] = Half life in Sprague-Dawley rat at 2 mg/kg, iv; type: ADME, organism-based; set-up: dose 2 mg/kg, route intravenous; details: in vivo
[11] = molecular target: Serine/threonine-protein kinase pim-2 (Homo sapiens, UniProt Q9P1W9); assay: Inhibition of PIM2
Serine/threonine-protein kinase pim-2, sequence (Q9P1W9 whole entry): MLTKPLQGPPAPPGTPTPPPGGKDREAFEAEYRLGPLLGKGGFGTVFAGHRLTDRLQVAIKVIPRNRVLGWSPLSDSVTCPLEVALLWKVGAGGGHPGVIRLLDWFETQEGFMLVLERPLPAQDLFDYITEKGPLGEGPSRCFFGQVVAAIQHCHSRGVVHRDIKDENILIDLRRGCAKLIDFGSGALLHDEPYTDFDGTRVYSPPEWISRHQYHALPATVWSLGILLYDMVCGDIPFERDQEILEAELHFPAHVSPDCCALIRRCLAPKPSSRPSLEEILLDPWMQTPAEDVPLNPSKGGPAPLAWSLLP

[12] = molecular target: Serine/threonine-protein kinase PAK 3 (Homo sapiens, UniProt O75914); assay: Inhibition of PAK3
[13] = molecular target: T1, Ketohexokinase; assay: Inhibition of ketokinase isoform C in human HepG2 cells assessed as levels of fructose-1-phosphate preincubated for 30 mins followed by substrate addition measured after 3 hrs by LC-MS analysis; type: cell-based
[14] = Permeability from basolateral to apical side in human Caco2 cells; type: ADME, cell-based; details: Caco-2, read-out: permeability
[15] = molecular target: Cytochrome P450 2C9 (Homo sapiens, UniProt P11712); assay: Inhibition of CYP2C9 in human liver microsomes; type: ADME, Microsome
Cytochrome P450 2C9, sequence (P11712 whole entry): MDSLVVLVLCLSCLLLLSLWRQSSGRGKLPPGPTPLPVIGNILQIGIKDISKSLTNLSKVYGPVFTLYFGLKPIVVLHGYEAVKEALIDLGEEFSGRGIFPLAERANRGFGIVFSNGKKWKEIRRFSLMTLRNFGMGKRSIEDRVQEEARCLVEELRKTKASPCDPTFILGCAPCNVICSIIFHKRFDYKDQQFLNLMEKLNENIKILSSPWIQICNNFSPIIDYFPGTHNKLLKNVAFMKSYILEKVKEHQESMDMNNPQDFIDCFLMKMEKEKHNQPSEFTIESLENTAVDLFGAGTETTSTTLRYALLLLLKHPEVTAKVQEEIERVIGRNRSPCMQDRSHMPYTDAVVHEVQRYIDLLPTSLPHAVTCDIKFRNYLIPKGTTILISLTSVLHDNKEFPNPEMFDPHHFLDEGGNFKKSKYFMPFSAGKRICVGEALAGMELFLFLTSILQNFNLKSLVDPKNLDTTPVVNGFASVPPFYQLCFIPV

[16] = molecular target: Serine/threonine-protein kinase Chk2 (Homo sapiens, UniProt O96017); assay: Inhibition of CHK2
[17] = molecular target: Serine/threonine-protein kinase PLK3 (Homo sapiens, UniProt Q9H4B4); assay: Inhibition of PLK3
[18] = molecular target: 5'-AMP-activated protein kinase catalytic subunit alpha-1 (Homo sapiens, UniProt Q13131); assay: Inhibition of AMPKA1
[19] = Permeability from apical to basolateral side in human Caco2 cells; type: ADME, cell-based; details: Caco-2, read-out: permeability
[20] = Half life in Sprague-Dawley rat at 10 mg/kg, po; type: ADME, organism-based; set-up: dose 10 mg/kg, route oral; details: in vivo
[21] = Cmax in Sprague-Dawley rat at 10 mg/kg, po; type: ADME, organism-based; set-up: dose 10 mg/kg, route oral; details: in vivo
[22] = molecular target: Glycogen synthase kinase-3 beta (Homo sapiens, UniProt P49841); assay: Inhibition of GSK3beta
[23] = molecular target: Tyrosine-protein kinase JAK2 (Homo sapiens, UniProt O60674); assay: Inhibition of JAK2
[24] = molecular target: Serine/threonine-protein kinase 26 (Homo sapiens, UniProt Q9P289); assay: Inhibition of MST4
[25] = molecular target: Cytochrome P450 3A4 (Homo sapiens, UniProt P08684); assay: Inhibition of CYP3A4 in human liver microsomes; type: ADME, Microsome
Cytochrome P450 3A4, sequence (P08684 whole entry): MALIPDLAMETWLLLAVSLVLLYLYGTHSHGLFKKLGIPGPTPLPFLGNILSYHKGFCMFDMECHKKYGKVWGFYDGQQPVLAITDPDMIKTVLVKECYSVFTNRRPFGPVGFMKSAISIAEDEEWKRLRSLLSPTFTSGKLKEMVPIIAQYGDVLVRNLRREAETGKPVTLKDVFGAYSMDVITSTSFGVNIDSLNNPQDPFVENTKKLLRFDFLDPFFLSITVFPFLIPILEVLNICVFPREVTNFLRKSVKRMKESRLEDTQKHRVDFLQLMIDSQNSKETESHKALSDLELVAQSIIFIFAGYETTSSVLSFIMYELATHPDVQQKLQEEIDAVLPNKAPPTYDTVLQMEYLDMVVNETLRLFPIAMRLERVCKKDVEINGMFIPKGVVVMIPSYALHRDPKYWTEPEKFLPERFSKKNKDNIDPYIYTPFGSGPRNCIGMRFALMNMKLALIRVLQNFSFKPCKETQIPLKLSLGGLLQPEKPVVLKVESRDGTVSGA

[26] = molecular target: Cytochrome P450 1A2 (Homo sapiens, UniProt P05177); assay: Inhibition of CYP1A2 in human liver microsomes; type: ADME, Microsome
[27] = molecular target: 5'-AMP-activated protein kinase subunit gamma-1 (Homo sapiens, UniProt P54619); assay: Inhibition of AMPKG1
[28] = molecular target: Activin receptor type-1B (Homo sapiens, UniProt P36896); assay: Inhibition of ALK4
[29] = molecular target: Aurora kinase A (Homo sapiens, UniProt O14965); assay: Inhibition of Aurora A
Aurora kinase A, sequence (O14965 whole entry): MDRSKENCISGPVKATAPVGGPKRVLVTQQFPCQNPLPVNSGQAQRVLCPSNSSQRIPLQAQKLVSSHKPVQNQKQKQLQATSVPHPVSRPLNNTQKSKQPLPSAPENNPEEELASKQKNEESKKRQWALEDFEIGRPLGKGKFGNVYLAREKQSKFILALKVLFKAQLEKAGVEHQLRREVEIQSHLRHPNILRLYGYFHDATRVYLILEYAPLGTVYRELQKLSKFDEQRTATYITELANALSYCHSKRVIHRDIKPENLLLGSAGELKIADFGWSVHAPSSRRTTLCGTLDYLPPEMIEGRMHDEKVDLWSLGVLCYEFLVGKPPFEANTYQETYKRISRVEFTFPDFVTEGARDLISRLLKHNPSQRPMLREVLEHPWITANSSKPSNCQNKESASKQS

[30] = molecular target: 5'-AMP-activated protein kinase subunit beta-1 (Homo sapiens, UniProt Q9Y478); assay: Inhibition of AMPKB1
[31] = Initial plasma concentration in Sprague-Dawley rat at 2 mg/kg, iv; type: ADME, organism-based; set-up: dose 2 mg/kg, route intravenous
[32] = molecular target: Cytochrome P450 2C19 (Homo sapiens, UniProt P33261); assay: Inhibition of CYP2C19 in human liver microsomes; type: ADME, Microsome
[33] = molecular target: Serine/threonine-protein kinase Chk1 (Homo sapiens, UniProt O14757); assay: Inhibition of CHK1
[34] = molecular target: cAMP-dependent protein kinase catalytic subunit alpha (Homo sapiens, UniProt P17612); assay: Inhibition of PRKACA
[35] = molecular target: Death-associated protein kinase 3 (Homo sapiens, UniProt O43293); assay: Inhibition of DAPK3
[36] = molecular target: Tyrosine-protein kinase ABL1 (Homo sapiens, UniProt P00519); assay: Inhibition of ABL1
[37] = molecular target: Proto-oncogene tyrosine-protein kinase Src (Homo sapiens, UniProt P12931); assay: Inhibition of SRC
[38] = molecular target: Mitogen-activated protein kinase 13 (Homo sapiens, UniProt O15264); assay: Inhibition of p38delta
[39] = Solubility of the compound in 10% aqueous Solutol; type: physicochemical
[40] = Metabolic stability of the compound in rat liver microsomes assessed as compound remaining after 10 mins; type: ADME, Microsome; details: read-out: Stability
[41] = molecular target: High affinity nerve growth factor receptor (Homo sapiens, UniProt P04629); assay: Inhibition of NTRK1
[42] = molecular target: Protein kinase C theta type (Homo sapiens, UniProt Q04759); assay: Inhibition of PKCtheta
Protein kinase C theta type, sequence (Q04759 whole entry): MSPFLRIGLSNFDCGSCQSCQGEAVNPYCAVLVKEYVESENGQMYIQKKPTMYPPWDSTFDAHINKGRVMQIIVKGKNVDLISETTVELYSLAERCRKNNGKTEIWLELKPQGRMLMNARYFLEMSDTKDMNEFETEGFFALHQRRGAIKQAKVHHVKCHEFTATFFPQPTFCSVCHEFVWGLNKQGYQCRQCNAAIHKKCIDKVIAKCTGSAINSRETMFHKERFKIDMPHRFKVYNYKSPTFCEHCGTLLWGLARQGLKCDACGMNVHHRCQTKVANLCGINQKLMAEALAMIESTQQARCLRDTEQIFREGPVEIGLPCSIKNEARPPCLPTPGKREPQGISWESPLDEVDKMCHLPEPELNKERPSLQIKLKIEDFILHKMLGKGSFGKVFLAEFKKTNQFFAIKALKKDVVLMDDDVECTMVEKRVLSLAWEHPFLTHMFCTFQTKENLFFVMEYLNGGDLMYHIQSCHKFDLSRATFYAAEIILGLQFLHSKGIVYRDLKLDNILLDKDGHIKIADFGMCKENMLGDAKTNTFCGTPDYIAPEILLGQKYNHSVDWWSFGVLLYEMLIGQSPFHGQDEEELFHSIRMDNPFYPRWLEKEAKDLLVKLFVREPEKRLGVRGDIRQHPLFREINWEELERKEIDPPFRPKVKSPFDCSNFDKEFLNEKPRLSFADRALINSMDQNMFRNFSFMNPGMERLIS

[43] = molecular target: Serine/threonine-protein kinase Nek2 (Homo sapiens, UniProt P51955); assay: Inhibition of NEK2
[44] = molecular target: Cytochrome P450 2D6 (Homo sapiens, UniProt P10635); assay: Inhibition of CYP2D6 in human liver microsomes; type: ADME, Microsome
Cytochrome P450 2D6, sequence (P10635 whole entry): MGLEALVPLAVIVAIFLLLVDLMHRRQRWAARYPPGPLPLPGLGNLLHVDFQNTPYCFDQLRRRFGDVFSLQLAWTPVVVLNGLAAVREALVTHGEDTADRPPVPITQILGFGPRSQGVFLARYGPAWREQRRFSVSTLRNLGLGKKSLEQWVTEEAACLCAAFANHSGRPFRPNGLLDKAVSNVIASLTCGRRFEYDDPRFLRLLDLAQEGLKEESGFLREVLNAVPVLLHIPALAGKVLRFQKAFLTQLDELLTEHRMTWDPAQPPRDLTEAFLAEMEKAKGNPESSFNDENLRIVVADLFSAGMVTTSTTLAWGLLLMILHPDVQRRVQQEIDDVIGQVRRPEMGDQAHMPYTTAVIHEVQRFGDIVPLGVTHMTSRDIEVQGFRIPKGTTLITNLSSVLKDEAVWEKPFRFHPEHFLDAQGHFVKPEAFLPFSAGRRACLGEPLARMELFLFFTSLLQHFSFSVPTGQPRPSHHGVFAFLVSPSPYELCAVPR

[45] = molecular target: Interleukin-1 receptor-associated kinase 4 (Homo sapiens, UniProt Q9NWZ3); assay: Inhibition of IRAK4
[46] = Metabolic stability of the compound in human liver microsomes assessed as compound remaining after 10 mins; type: ADME, Microsome; details: read-out: Stability
[47] = molecular target: Ribosomal protein S6 kinase alpha-3 (Homo sapiens, UniProt P51812); assay: Inhibition of RPS6KA3
[48] = Oral bioavailability in Sprague-Dawley rat at 10 mg/kg; type: ADME, organism-based; details: in vivo

Molecule `Cc1cccc(Nc2nc(N3CCNCC3)nc3c(NCC4CC4)ncnc23)c1` has an IC50 [1] of 2800 nM.
Work on `CSc1ccccc1Nc1nc(N2CCNCC2)nc2c(NCC3CC3)ncnc12` yielded an IC50 [2] greater than 40000 nM, a clearance [3] of 160 mL/min/kg and an IC50 [4] greater than 40000 nM. The IC50 [5] was greater than 40000 nM, the IC50 [6] was greater than 40000 nM and the Vd [7] was 32 L/kg. For the same molecule, the IC50 [8] was greater than 40000 nM, the IC50 [9] was greater than 40000 nM and the half-life [10] was 2 h. It also gave an IC50 [11] greater than 40000 nM, an IC50 [12] greater than 40000 nM and an IC50 [13] of 400 nM. For the same molecule, the Papp B→A [14] was 1 ×10⁻⁶ cm/s, the “inhibition (INH)” value [15] was “Not Active” and the IC50 [16] was greater than 40000 nM. The IC50 [17] was greater than 40000 nM, the IC50 [18] was greater than 40000 nM and the Papp A→B [19] was 0.3 ×10⁻⁶ cm/s. The half-life [20] was 4 h, the Cmax [21] was 160 nM and the IC50 [22] was greater than 40000 nM. The IC50 [23] was greater than 40000 nM, the IC50 [24] was greater than 40000 nM and the “inhibition (INH)” value [25] was “Not Active”. For the same molecule, the “inhibition (INH)” value [26] was “Not Active”, the IC50 [27] was greater than 40000 nM and the IC50 [28] was greater than 40000 nM. It also gave an IC50 [29] greater than 40000 nM, an IC50 [30] greater than 40000 nM and a C0 [31] of 600 nM. The “inhibition (INH)” value [32] was “Not Active”, the IC50 [33] was greater than 40000 nM and the IC50 [34] was greater than 40000 nM. For the same molecule, the IC50 [35] was greater than 40000 nM, the IC50 [36] was greater than 40000 nM and the IC50 [37] was greater than 40000 nM. For the same molecule, the IC50 [38] was greater than 40000 nM, the solubility [39] was 1500 µg/mL (≈ 3.55 mM) and the remaining at 10 min [40] was 72%. The IC50 [41] was greater than 40000 nM, the IC50 [42] was greater than 40000 nM and the IC50 [43] was greater than 40000 nM. For the same molecule, the “inhibition (INH)” value [44] was “Not Active”, the IC50 [45] was greater than 40000 nM and the remaining at 10 min [46] was 88%. The IC50 [47] was greater than 40000 nM and the bioavailability [48] was 34%.
With `CSc1ccccc1Nc1nc(N2CC3(CNC3)C2)nc2c(NCC3CC3)ncnc12` the IC50 [13] was 360 nM.
Molecule `Cc1ccccc1Nc1nc(N2CCC(CN)CC2)nc2c(NCC3CC3)ncnc12` has an IC50 [1] of 70 nM.
`CSc1ccccc1Nc1nc(N2CCC[C@H](N)C2)nc2c(NCC3CC3)ncnc12` gave an IC50 [1] of 23 nM.
With `Cc1ccccc1Nc1nc(NC2CCNCC2)nc2c(NCC3CC3)ncnc12` the IC50 [1] was 710 nM.
With `CSc1cccc(Nc2nc(N3CCNCC3)nc3c(NCC4CC4)ncnc23)c1` the IC50 [1] was 2000 nM.
For `CCOc1ccccc1Nc1nc(N2CCNCC2)nc2c(NCC3CC3)ncnc12`, the IC50 [1] was 200 nM.
With `FC(F)(F)Sc1ccccc1Nc1nc(N2CCNCC2)nc2c(NCC3CC3)ncnc12` the IC50 [1] was 3000 nM.
`Clc1ccccc1Nc1nc(N2CCNCC2)nc2c(NCC3CC3)ncnc12` gave an IC50 [1] of 540 nM.
In the case of `CSc1ccc(Nc2nc(N3CCNCC3)nc3c(NCC4CC4)ncnc23)cc1`, the IC50 [1] is reported as greater than 9000 nM.
`Cc1ccccc1Nc1nc(N2CCNCC2)nc2c(NCc3nccs3)ncnc12` gave an IC50 [1] of 60 nM.
With `Brc1ccccc1Nc1nc(N2CCNCC2)nc2c(NCC3CC3)ncnc12` the IC50 [1] was 170 nM.
For `Cc1ccccc1Nc1nc(N2CCC(N)CC2)nc2c(NCC3CC3)ncnc12`, the IC50 [1] was 200 nM.
`CCCCCCNc1ncnc2c(Nc3ccccc3C)nc(N3CCNCC3)nc12` gave an IC50 [1] of 1600 nM.
`CSc1ccccc1Nc1nc(N2CCC(CN(C)C)CC2)nc2c(NCC3CC3)ncnc12` showed an IC50 [1] of 140 nM.
In the case of `Cc1ccccc1Nc1nc(N2CCNCC2)nc2c(NCc3cccs3)ncnc12`, the IC50 [1] is reported as 300 nM.
With `Fc1ccccc1Nc1nc(N2CCNCC2)nc2c(NCC3CC3)ncnc12` the IC50 [1] was 1500 nM.
`Cc1ccccc1Nc1nc(N2CCCNCC2)nc2c(NCC3CC3)ncnc12` showed an IC50 [1] of 300 nM.
For `c1nc(NCC2CC2)c2nc(N3CCNCC3)nc(NC3CCCCC3)c2n1`, the IC50 [1] was greater than 9000 nM.
With `c1ccc(C2CC2)c(Nc2nc(N3CCNCC3)nc3c(NCC4CC4)ncnc23)c1` the IC50 [1] was 380 nM.
Molecule `CSc1ccccc1Nc1nc(N2CCNCC2)nc2c(NCc3cccs3)ncnc12` has an IC50 [1] of 30 nM.
In the case of `CSc1ccccc1Nc1nc(N2CC(CN)C2)nc2c(NCC3CC3)ncnc12`, the IC50 [1] is reported as 30 nM and the IC50 [13] is reported as 590 nM.
`COc1ccccc1Nc1nc(N2CCNCC2)nc2c(NCC3CC3)ncnc12` gave an IC50 [1] of 100 nM.
In the case of `CSc1ccccc1Nc1nc(N2CCN(C)CC2)nc2c(NCC3CC3)ncnc12`, the IC50 [1] is reported as 110 nM.
